Laboratory results from ChEMBL document CHEMBL5214920, “Emerging impact of triazoles as anti-tubercular agent” (Eur J Med Chem, 2022).
Values after ≈ are worked out from the molar mass of the structure shown.

What follows are molecules tested on Mycobacterium tuberculosis (assay: Antitubercular activity against multi-drug-resistant Mycobacterium tuberculosis assessed as bacterial growth inhibition measured after 7 days by direct susceptibility assay). Details: 168 h, time 7 day.
Format: functional

| SMILES | MIC |
| --- | --- |
| COc1c(N2CCNCC2)c(F)cc2c(=O)c(C(=O)O)cn(C3CC3)c12 | 2 µg/mL (≈ 5.53 µM) |
| O=C(O)c1cn(C2CC2)c2cc(N3CCN(Cc4cn(CCN5C(=O)Cc6ccccc65)nn4)CC3)c(F)cc2c1=O | 0.25 µg/mL (≈ 0.437 µM) |
| CO/N=C1/C(=O)C(CCOCCOCCOCCn2cc(CN3C(=O)/C(=N/OC)c4cc(F)ccc43)nn2)c2ccccc21 (configuration not stated) | 64 µg/mL (≈ 105 µM) |
| O=C(O)c1cn(C2CC2)c2cc(N3CCNCC3)c(F)cc2c1=O [CIPROFLOXACIN] | 4 µg/mL (≈ 12.1 µM) |
| NNC(=O)c1ccncc1 [ISONIAZID] | 512 µg/mL (≈ 3730 µM) |
| CO[C@H]1/C=C/O[C@@]2(C)Oc3c(C)c(O)c4c(O)c(c(/C=N/N5CCN(C)CC5)c(O)c4c3C2=O)NC(=O)/C(C)=C\C=C\[C@H](C)[C@H](O)[C@@H](C)[C@@H](O)[C@@H](C)[C@H](OC(C)=O)[C@@H]1C [RIFAMPIN] | 64 µg/mL (≈ 77.8 µM) |

Each molecule was assayed on Mycobacterium tuberculosis (assay: Potency index, ratio of isoniazid MIC to test compound MIC for antitubercular activity against multi-drug-resistant Mycobacterium tuberculosis). Details: not given.
Format: functional

| SMILES | Ratio |
| --- | --- |
| CO/N=C1/C(=O)C(CCOCCOCCOCCn2cc(CN3C(=O)/C(=N/OC)c4cc(F)ccc43)nn2)c2ccccc21 (configuration not stated) | 8 |
